Assay results: the supplement of paper PMC3974653
Structures can show the parent of a compound that is named as a salt.

system: MTT (mouse pheochromocytoma); test: IC50 of cell viability (ATP content); details: (24 or 48 h)
In short: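 Cells of the MTT mouse pheochromocytoma line, 5 µl per well at 200,000 cells/ml, were grown overnight at 37°C, 5% CO2 in white 1536-well plates with DMEM, 5% FBS and 1% horse serum. Pintool transfer then delivered 23 nl of library compound in DMSO, giving 8 final concentrations from 0.5 nM to 46 µM, for an exposure of 24 or 48 hrs. Luminescence from CellTiter-Glo was read after 15 minutes and referenced to positive-control wells (100%) and DMSO wells (0%). IC50 was calculated with a four-parameter logistic fit.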

Row | IC50 of cell viability | SMILES
1 | > 46 µM | C[C@]12CC[C@@H]3c4ccc(OC(=O)c5ccccc5)cc4CC[C@H]3[C@@H]1CC[C@@H]2O [ESTRADIOL BENZOATE]
2 | > 46 µM | O=C1c2ccccc2[S+](=O)([O-])N1CCCCN1CCN(c2ncccn2)CC1 [Ipsapirone]
3 | > 46 µM | O=C(O)c1ccccc1-c1ccc(C(F)(F)F)cc1 [Xenalipin]
4 | > 46 µM | CCOc1ccc(N[S+](=O)([O-])c2ccc(N)cc2)nn1 [Sulfaethoxypyridazine]
5 | > 46 µM | NC1C2CN(CC12)C3=NC4=C(C=C3F)C(=O)C(=C/N4C5=CC=C(F)C=C5F)\C(O)=O (centres undefined) [TROVAFLOXACIN MESYLATE]
6 | > 46 µM | O=NCc1ccc([N+](=O)[O-])o1 [NIFUROXIME]
7 | > 46 µM | Oc1ccc(C2CNCCc3c2cc(O)c(O)c3Cl)cc1 (centres undefined) [FENOLDOPAM]
8 | > 46 µM | C=CC1=C(C(=O)O)N2C(=O)C(NC(=O)/C(=N\O)c3csc(N)n3)C2SC1 (centres undefined) [CEFDINIR]
9 | > 46 µM | OCc1ccc(Cl)cc1Cl [DICHLOROBENZYL ALCOHOL]
10 | > 46 µM | O=C1Nc2ccc(Cl)cc2C(C#CC2CC2)(C(F)(F)F)O1 (centres undefined) [EFAVIRENZ]
11 | > 46 µM | N=C(N)N.O=C(O)O [GUANIDINE CARBONATE]
12 | > 46 µM | Cc1cccc(C)c1NC(=O)CN1CCN(CCCC(c2ccc(F)cc2)c2ccc(F)cc2)CC1 [Lidoflazine]
13 | > 46 µM | COc1ccc([S+](=O)([O-])Nc2nnc(CC(C)C)s2)cc1 [Glisobuzol]
14 | > 46 µM | CC1(C)SC2C(NC(=O)C(C(=O)[O-])c3ccccc3)C(=O)N2C1C(=O)[O-].[Na+].[Na+] (centres undefined) [CARBENICILLIN DISODIUM]
15 | > 46 µM | S=C=Nc1ccc(N=C=S)cc1 [Bitoscanate]
16 | > 46 µM | C[C@H]1NCc2cc(-c3ccc4c(=O)c(C(=O)O)cn(C5CC5)c4c3OC(F)F)ccc21 [Garenoxacin]
17 | > 46 µM | CC(=O)Nc1ccc(OC(C)=O)cc1 [Diacetamate]
18 | > 46 µM | Nc1ncnc(Nc2ccc(Cl)cc2)n1 [2-AMINO-4-(4-CHLOROANILINO)-1,3,5-TRIAZINE]
19 | > 46 µM | C[C@@H](CN(C)C)CN1c2ccccc2Sc2ccccc21.C[C@@H](CN(C)C)CN1c2ccccc2Sc2ccccc21.O=C(O)[C@@H](O)[C@@H](O)C(=O)O [Trimeprazine tartrate]

Row | IC50 of cell viability | SMILES
20 | > 46 µM | C[C@]12CC[C@@H]3[C@H](CC\C4=C\CCC[C@H]34)[C@@H]1CC[C@]2(O)C#C [Lynestrenol]
21 | > 46 µM | C=C[C@]1(C)C[C@@H](OC(=O)CO)[C@]2(C)C(C)CC[C@]3(CCC(=O)[C@H]32)[C@@H](C)[C@@H]1O (some centres undefined) [Pleuromutilin]
22 | > 46 µM | Cc1cn[nH]c1.Cl [4-Methylpyrazole hydrochloride]
23 | > 46 µM | Nc1ccc(C(=O)Nc2ccccc2N)cc1 [Dinaline]
24 | > 46 µM | CC(CSC(=O)c1ccccc1)C(=O)N1CC(Sc2ccccc2)CC1C(=O)[O-] (centres undefined) [ZOFENOPRIL Calcium Salt]
25 | > 46 µM | CC1=C(C(=O)OCCN(Cc2ccccc2)c2ccccc2)C(c2cccc([N+](=O)[O-])c2)C(P2(=O)OCC(C)(C)CO2)=C(C)N1 (centres undefined) [Efonidipine]
26 | > 46 µM | CN(C)CCOC(c1ccccc1)c1ccccc1 [DIPHENHYDRAMINE]
27 | > 46 µM | COC(=O)c1ccc(O)cc1 [Methylparaben]
28 | > 46 µM | COc1ccc(C2C(=O)c3ccccc3C2=O)cc1 [ANISINDIONE]
29 | > 46 µM | CC(=O)O[C@@]1(CC[C@H]2[C@@H]3CCC/4=C/C(=O)CC[C@@H]4[C@H]3CC[C@]12C)C#C [NORETHISTERONE ACETATE]
30 | > 46 µM | CC(C)NCC(O)COc1ccc(CCOCC2CC2)cc1 (centres undefined) [BETAXOLOL]
31 | > 46 µM | O=C(OC[C@@H](O)CO)c1ccccc1Nc1ccnc2cc(Cl)ccc12 [Glafenine hydrochloride]
32 | > 46 µM | CCCN(CCC)C(=O)[C@@H](CCC(=O)O)NC(=O)c1ccccc1 [Proglumide]
33 | > 46 µM | CC(=O)NC(=O)c1ccccc1O [Salacetamida]
34 | > 46 µM | OCC(O)C(O)C(O)CO (centres undefined) [ARABITOL(D)]
35 | > 46 µM | COc1cc([C@H]2c3cc4c(cc3[C@@H](O[C@@H]3O[C@H]5CO[C@@H](C)O[C@@H]5[C@@H](O)[C@H]3O)[C@@H]3COC(=O)[C@H]23)OCO4)cc(OC)c1O [Etoposide]
36 | > 46 µM | [O-]C(=O)C1=CC=CC=C1C(C2=CC(=C([O-])C(=C2)I)I)=C\3/C=C(I)\C(=O)\C(=C3)I [IODOPHTHALEINUM NATRICUM]
37 | > 46 µM | CCN1\C=C(\C(O)=O)C(=O)C2=CC(=C(N3CCN[C@@H](C)C3)C(=C12)F)F [Lomefloxacin HCl]
38 | > 46 µM | COC1=C2OC(=O)\C=C/C2=CC3=C1OC=C3 [Methoxsalen]

Row | IC50 of cell viability | SMILES
39 | > 46 µM | CC1C(=O)C(=O)C=CN1C (centres undefined) [DEFERIPRONE]
40 | > 46 µM | COc1ccc2c(c1)OC(C)(C)C(c1ccccc1)C2c1ccc(OCCN2CCCC2)cc1 (centres undefined) [ORMELOXIFENUM]
41 | > 46 µM | C=C1CCC(O)C/C1=C/C=C1\CCC[C@]2(C)[C@@H]([C@H](C)/C=C/[C@H](C)C(C)C)CC[C@@H]12 (some centres undefined) [ERGOCALCIFEROL]
42 | > 46 µM | Oc1cc(O)cc(O)c1 [PHLOROGLUCINOL]
43 | > 46 µM | CO/N=C(\C(=O)N[C@@H]1C(=O)N2C(C(=O)[O-])=C(COC(C)=O)CS[C@@H]12)c1csc(N)n1.[Na+] [Cefotaxime sodium salt]
44 | > 46 µM | C/C(=C(/CCO)SSC[C@@H]1CCCO1)N(C=O)Cc1cnc(C)nc1N [FURSULTIAMINE HYDROCHLORIDE]
45 | > 46 µM | CCC(=O)Nc1ccc(O)cc1 [Parapropamol]
46 | > 46 µM | CCN1CCCC1CNC(=O)c1cc([S+](=O)([O-])CC)ccc1OC (centres undefined) [Sultopride Hydrochloride]
47 | > 46 µM | CCCC(CCC)C(N)=O [Valpromide]
48 | > 46 µM | CC(=O)Nc1ncc([N+](=O)[O-])s1 [Nithiamide]
49 | > 46 µM | N[S+](=O)([O-])c1ccc(Cl)c([S+](N)(=O)[O-])c1 [Clofenamide]
50 | > 46 µM | CSCCC(NC(=O)C(Cc1c[nH]c2ccccc12)NC(=O)CCNC(=O)OC(C)(C)C)C(=O)NC(CC(=O)O)C(=O)NC(Cc1ccccc1)C(N)=O (centres undefined) [Pentagastrin]
51 | > 46 µM | Cc1scc2c1N(C(=O)CN1CCN(C)CC1)c1ccccc1NC2=O [TELENZEPINE]
52 | > 46 µM | CC(=O)NCCCS(=O)(=O)[O-] [ACAMPROSATE CALCIUM]
53 | > 46 µM | CCN(CC)CCOc1ccc(/C(=C(/Cl)c2ccccc2)c2ccccc2)cc1 [Enclomifene]
54 | > 46 µM | COc1cc2c(c(OC)c1OC)-c1c(cc3c(c1OC)OCO3)C[C@@H](C)[C@](C)(O)C2 [Gomisin A]
55 | > 46 µM | Nc1cc(O)nc(N)n1 [2,4-Diamino-6-hydroxypyrimidine]
56 | > 46 µM | CC(C)=CCC/C(C)=C/C=C/C(C)=C/C=C/C(C)=C/C=C/C=C(C)/C=C/C=C(C)/C=C/C=C(\C)CCC=C(C)C [LYCOPENE]
57 | > 46 µM | OCC1OC(OC2C(CO)OC(OC3C(CO)OC(O)C(O)C3O)C(O)C2O)C(O)C(O)C1O (centres undefined) [Maltotriose]

Row | SMILES | IC50 of cell viability
58 | C[C@H](N)C(=O)c1ccccc1 [S(-)-Cathinone hydrochloride] | > 46 µM
59 | COC(C(=O)C(O)C(C)O)C1Cc2cc3cc(OC4CC(OC5CC(O)C(OC)C(C)O5)C(OC(C)=O)C(C)O4)c(C)c(O)c3c(O)c2C(=O)C1OC1CC(OC2CC(OC3CC(C)(O)C(OC(C)=O)C(C)O3)C(O)C(C)O2)C(O)C(C)O1 (centres undefined) [CHROMOMYCIN A3] | > 46 µM
60 | O=C1c2ccccc2C(=O)c2ccccc21 [Anthraquinone] | > 46 µM
61 | CNC1(c2ccccc2Cl)CCCCC1=O (centres undefined) [Cetamina] | > 46 µM
62 | N[C@@H](Cc1ccc(N(CCCl)CCCl)cc1)C(=O)O [Melphalan] | > 46 µM
63 | C=CC[N+]1(C)CCC23c4c5ccc(O)c4O[C@H]2C(=O)CC[C@@]3(O)C1C5 (some centres undefined) [NALOXONE METHIODIDE] | > 46 µM
64 | O=C(C[S+]([O-])C(c1ccccc1)c1ccccc1)NO (centres undefined) [ADRAFINILUM] | > 46 µM
65 | CC(C)NC(C)C [Diisopropyl amine] | > 46 µM
66 | CCNc1nc(Cl)nc(NCC)n1 [SIMAZINE] | > 46 µM
67 | FC(F)(F)c1cccc(C2=CCN(CCc3ccc4ccccc4c3)CC2)c1 [XALIPRODEN HYDROCHLORIDE] | > 46 µM
68 | CN1C(=O)CC(=O)N(c2ccccc2)c2cc(Cl)ccc21 [CLOBAZAM] | > 46 µM
69 | CC(=O)N[C@@H]1CCSC1=O (racemic) [N-Acetyl-DL-homocysteine Thiolactone] | > 46 µM
70 | CNC(=O)NC(O)C(Cl)(Cl)Cl (centres undefined) [MECLORALUREA] | > 46 µM
71 | CCCCC(CC)COC(=O)c1ccccc1C(=O)OCC(CC)CCCC (centres undefined) [Di(2-ethylhexyl) phthalate] | > 46 µM
72 | CN(C)C(=S)SSC(=S)N(C)C [Tetramethylthiuram disulfide] | > 46 µM
73 | C[C@H](N)Cc1ccccc1 [AMPHETAMINE ADIPATE] | > 46 µM
74 | CCN(CC)CCc1c[nH]c2ccccc12 [N,N-Diethyltryptamine] | > 46 µM
